{"source": "paper PMC12312386", "about": "“Multiple transactivation domains of EZH2 bind to the TAZ2 domain of p300 and stimulate the acetyltransferase function of p300” (Biochemical Journal, 2025)", "key": {"[1]": {"biological_target": "T1, p300TAZ2 (TAZ2 domain of p300) (Homo sapiens, UniProt Q09472, A1723W)", "T1 construct": "Human p300TAZ2 [aa 1722–1812, pGEX-4T-1 vector with an additional tobacco etch virus (TEV) cleavage site]; GST (pGEX-4T-1, TEV site) (N, cleaved yes); made in house; host or cells: Escherichia coli Rosetta-2 (DE3) pLysS", "T1 sequence (Q09472 1722-1812 A1723W)": "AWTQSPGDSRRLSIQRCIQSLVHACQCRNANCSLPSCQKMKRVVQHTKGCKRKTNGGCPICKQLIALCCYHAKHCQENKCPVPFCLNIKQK", "test": "Microscale thermophoresis (MST) binding of p300TAZ2-His to EZH2 TAD peptides", "conditions": "direct binding, p300TAZ2-6×His labeled RED-tris-NTA, 10 nM; 25 mM Tris pH 7.5, 150 mM NaCl, 2.5 mM DTT; 1:1 stoichiometry; average ± SD of three (EZH2TAD2, EZH2TAD3) or four (EZH2TAD1) independent measurements", "quoted_text": "After induction with isopropyl b-D-1-thiogalactopyranoside (IPTG), harvesting, and lysis in buffer [50 mM Tris pH 7.0, 1 M NaCl, 5 mM dithiothreitol (DTT), 1 mM phenylmethanesulfonylfluoride (PMSF) and DNase] by sonication, the proteins were purified on glutathione agarose beads (Pierce) and eluted with buffer containing reduced L-glutathione (Fisher). The GST tag was either cleaved with TEV protease overnight at 22°C or kept intact during subsequent purification steps. Both GST- and His-tagged proteins, as well as untagged p300TAZ2, were further purified by cation exchange (HiTrap SP HP, Cytiva) or heparin affinity chromatography (HiTrap Heparin HP, Cytiva).\nMST experiments were carried out on a Monolith NT.115 instrument (NanoTemper). All experiments were performed using SEC-purified p300TAZ2-6×His protein in 25 mM Tris pH 7.5 buffer, 150 mM NaCl, and 2.5 mM DTT. p300TAZ2-6×His was labeled using a His-Tag Labeling Kit RED-tris-NTA (2nd Generation, NanoTemper) and kept constant at 10 nM. Dissociation constants were determined using a direct binding assay in which peptide was varied in concentration by serial dilution of discrete samples. The measurements were performed at 50% LED and medium MST power with 3-s pre-laser time, 20-s laser on-time, and 1-s off-time."}, "[2]": {"system": "FLAG-HA-tagged p300 catalytic core (aa 1035–1830 of p300)", "test": "Histone acetyltransferase (HAT) assay, Western blot, recombinant nucleosome substrate", "type": "biochemical", "conditions": "1 μg p300 core, 2.5, 5 or 10 μg GST-tagged TADs, 1 μg nucleosome, 100 mM acetyl-CoA, 50 mM Tris-HCl pH 8.0, 30°C, 15 min", "description": "Histone acetyltransferase assay\nFor HAT assays, FLAG-HA-tagged p300 core (aa 1035–1830 of p300) in a pCDH vector was expressed in 293 T cells for two days. Cells were lysed in lysis buffer (50 mM Tris-HCl pH 7.5, 300 mM NaCl, 1.5 mM MgCl2, 1 mM EDTA, 1% Triton100, 10% glycerol, 1 mM PMSF, and protease inhibitors) and sonicated. Cell lysates were incubated with anti-Flag M2 beads (Sigma) at 4° for 4 h. The beads were then washed three times with buffer (50 mM Tris-HCl pH 7.5, 500 mM NaCl, 1.5 mM MgCl2, 0.2 mM EDTA, 0.1% NP40, 10% glycerol, and 1 mM PMSF), and the protein was eluted with elution buffer (50 mM Tris-HCl pH 7.5, 300 mM NaCl, 1 mM DTT, 10% glycerol, and 0.4 mg/ml Flag peptide). […]\nPurified FLAG-HA-tagged p300 catalytic core fragment (1 μg) was incubated with increasing amounts of GST-tagged EZH2TADs and GST-tagged EZH1TADs (2.5, 5, or 10 μg) and the nucleosome (1 μg) in HAT reaction buffer (50 mM Tris-HCl pH 8.0, 100 mM NaCl, 10% glycerol, 1 mM DTT, […], and 1× cOmplete EDTA-free Protease Inhibitor Cocktail) at 30°C for 15 min. Reactions were stopped by boiling at 95°C for 5 min in 2×SDS loading buffer, and samples were analyzed by SDS-PAGE and Western blot. […]"}, "[3]": {"system": "p300TAZ2", "test": "Mass photometry (MP) of GST-EZH2TAD1 with p300TAZ2", "type": "binding, human", "description": "[37]. Briefly, both ^15N-labeled and unlabeled constructs were expressed in Escherichia coli Rosetta-2 (DE3) pLysS cells grown in either M9 minimal media or TB, both supplemented with 50-150 μM ZnCl2. After induction with isopropyl b-D-1-thiogalactopyranoside (IPTG), harvesting, and lysis in buffer [50 mM Tris pH 7.0, 1 M NaCl, 5 mM dithiothreitol (DTT), 1 mM phenylmethanesulfonylfluoride (PMSF) and DNase] by sonication, the proteins were purified on glutathione agarose beads (Pierce) and eluted with buffer containing reduced L-glutathione (Fisher). The GST tag was either cleaved with TEV protease overnight at 22°C or kept intact during subsequent purification steps. […] Human EZH2[…]3 ([…]) construct with a C-terminal 6×His tag was cloned into a pGEX-6P-1 vector (GenScript). The EZH2TAD1 ([…]) construct was generated by deletion using Q5 Hot Start High-Fidelity kit (NEB) and confirmed by DNA sequencing. Both constructs were expressed in E. coli Rosetta-2 (DE3) pLysS cells grown in LB media and induced at an OD600 of 0.6-0.8 with 1 mM IPTG for 16 h at 16°C. Cells were harvested by centrifugation, suspended in buffer (50 mM Tris pH 7.5, 500 mM NaCl, 1% CHAPS, 2 mM DTT, 1 mM PMSF, Roche cOmplete Protease Inhibitor Cocktail, and DNase), and lysed by sonication. […] When necessary, EZH2TAD constructs were further purified using a Superdex 200 Increase 10/300 GL column (Cytiva) with monitoring at 205 and 280 nm. Mass Photometry […] To overcome the minimum size limit, a GST-fusion construct was used for one of the components in each sample. […] Ten microliter of each sample was loaded into the sample wells of the silicon cassettes assembled onto MassGlass UC coverslips (Refeyn, Ltd.). Measurements were performed at room temperature in buffer (50 mM Tris pH 7.5, 150 mM NaCl, 5 mM DTT). β-amylase was used as calibration standard (56 kDa, 112 kDa, and 224 kDa). After the focus was set and locked, movies were captured for 60 s (2800 frames) using AcquireMP software (Refeyn Ltd). Data were processed using DiscoverMP (Refeyn Ltd)."}, "[4]": {"system": "GST-p300TAZ2", "test": "Mass photometry (MP) of GST-p300TAZ2 with EZH2TAD constructs", "type": "binding, human", "description": "[37]. […] After induction with isopropyl b-D-1-thiogalactopyranoside (IPTG), harvesting, and lysis in buffer [50 mM Tris pH 7.0, 1 M NaCl, 5 mM dithiothreitol (DTT), 1 mM phenylmethanesulfonylfluoride (PMSF) and DNase] by sonication, the proteins were purified on glutathione agarose beads (Pierce) and eluted with buffer containing reduced L-glutathione (Fisher). The GST tag was either cleaved with TEV protease overnight at 22°C or kept intact during subsequent purification steps. […] The EZH2TAD1 ([…]) construct was generated by deletion using Q5 Hot Start High-Fidelity kit (NEB) and confirmed by DNA sequencing. Both constructs were expressed in E. coli Rosetta-2 (DE3) pLysS cells grown in LB media and induced at an OD600 of 0.6-0.8 with 1 mM IPTG for 16 h at 16°C. Cells were harvested by centrifugation, suspended in buffer (50 mM Tris pH 7.5, 500 mM NaCl, 1% CHAPS, 2 mM DTT, 1 mM PMSF, Roche cOmplete Protease Inhibitor Cocktail, and DNase), and lysed by sonication. […] When necessary, EZH2TAD constructs were further purified using a Superdex 200 Increase 10/300 GL column (Cytiva) with monitoring at 205 and 280 nm. […] To overcome the minimum size limit, a GST-fusion construct was used for one of the components in each sample. […] Ten microliter of each sample was loaded into the sample wells of the silicon cassettes assembled onto MassGlass UC coverslips (Refeyn, Ltd.). […]"}}, "note": "No end group written: not given here.", "data": [{"substance": "NDEIFVELVNALGQYNDDD [EZH2TAD2]", "values": [{"measurement": "Kd", "setting": "[1]", "result": 0.31, "unit": "µM"}]}, {"substance": "EZH2 WT: GST-tagged EZH2TAD1-TAD2-TAD3 (aa 119–267)", "values": [{"measurement": "H3K18 acetylation by p300 core", "setting": "[2]; H3K18ac Western blot", "result": "dose-dependent increase in H3K18 and H3K27 acetylation"}, {"measurement": "H3K27 acetylation by p300 core", "setting": "[2]; H3K27ac Western blot", "result": "dose-dependent increase in H3K18 and H3K27 acetylation"}]}, {"substance": "SDKIFEAISSMF [EZH2TAD3]", "values": [{"measurement": "Kd", "setting": "[1]", "result": "0.52 ± 0.06", "unit": "µM"}]}, {"substance": "GST-EZH2TAD1: recombinant GST-tagged EZH2TAD1 (aa 142–160) construct (DGTFIEELIKNYDGKVHGD-His6; also: GST tag, end not given here)", "values": [{"measurement": "shift of the MP peak upon addition of p300TAZ2", "setting": "[3]; 20 nM GST-EZH2TAD1, 0.1 μM p300TAZ2", "result": "~ 14 kDa"}, {"measurement": "oligomeric state in the apo-state", "setting": "[3]; 20 nM GST-EZH2TAD1 alone", "result": "formed a dimer in the apo-state"}, {"measurement": "MP peak, apo GST-EZH2TAD1", "setting": "[3]; 20 nM GST-EZH2TAD1 alone, room temperature, 50 mM Tris pH 7.5, 150 mM NaCl, 5 mM DTT", "result": "~ 70 kDa"}, {"measurement": "oligomeric state / stoichiometry of GST-EZH2TAD1 complexes", "setting": "[3]; 20 nM GST-EZH2TAD1 with 0.1 μM p300TAZ2", "result": "dimeric GST-EZH2TAD1 bound by one molecule of p300TAZ2 and by two molecules of p300TAZ2"}]}, {"substance": "DGTFIEELIKNYD [EZH2TAD1]", "values": [{"measurement": "Kd", "setting": "[1]", "result": "0.53 ± 0.08", "unit": "µM"}]}, {"substance": "EZH2TAD1-TAD2-TAD3: recombinant human EZH2 aa 142–231 construct with a C-terminal 6×His tag, used in mass photometry", "values": [{"measurement": "MP peak of complex with GST-p300TAZ2", "setting": "[4]; 20 nM GST-p300TAZ2 + 1 μM EZH2TAD1-TAD2-TAD3, room temperature, 50 mM Tris pH 7.5, 150 mM NaCl, 5 mM DTT", "result": "~ 224 kDa"}, {"measurement": "stoichiometry of the complex with GST-p300TAZ2", "setting": "[4]; from MP peak, 20 nM GST-p300TAZ2, EZH2TAD1-TAD2 5 μM or EZH2TAD1-TAD2-TAD3 1 μM", "result": "six molecules of GST-p300TAZ2 and one molecule of EZH2TAD1-TAD2-TAD3"}]}]}
